The source of these data is the NIST ThermoML archive (doi:10.1016/j.jct.2015.12.018).

This series is described as follows: molar enthalpy of vaporization or sublimation. To be noted: 298.15 K; Crystal; Static calorimetry.

Each structure is given as a SMILES string. ± gives the expanded uncertainty stated by the source.

For the compound `O=C1OC(=O)c2ccccc21` [isobenzofuran-1,3-dione], the molar enthalpy came out at 87.9 ± 4.7 kJ/mol. As for `O=C1OCc2ccccc21` [1(3H)-isobenzofuranone], the molar enthalpy is 88.4 ± 4.4 kJ/mol.
